Measured values from patent US7868172B2, “2-(hetero)-aryl substituted tetrahydroquinoline derivatives” (Merck Patent GmbH, priority 2003, dated 2011).
Where “and” joins values, the source holds several entries; their conditions need not be identical. Identical values can stand only once.

Key:
[1] = tested on: HCT116 cells; assay: Cell cycle analysis, propidium iodide FACS (DNA content); type: cell-based; conditions: for percentage of cells in the G0/G1 phase (G1) / percentage of cells in the G2/M phase / percentage of cells in the S phase: HCT116, 24 hrs
Method: Monasterol and pentamidine in individual experiments: • HCT116 cells were treated with the given concentrations of the compounds for 24 hrs, processed for the propidium iodide analysis with a BD-FACS scan in order to determine the DNA content of the treated cell populations. The percentage of cells in the G0/G1 phase (unreplicated DNA), S phase (DNA replication phase) and G2/M phase (duplicated DNA before mitosis) is shown. 10,000 events were counted for each concentration. Striking changes in the G2/M enrichment have been highlighted.

[2] = tested on: colon carcinoma cell line HCT116; assay: Assay II: combination cell proliferation test, Crystal Violet staining; type: cell-based; conditions: for -fold inhibition of proliferation / OD550 nm background corrected / % of control: 48 hrs
Method: The combination of the antiprotozoic pentamidine and the inhibitors of kinesin ATPase Eg5/KSP results in increased inhibitory effects in cell proliferation tests with the colon carcinoma cell line HCT116.
10^3 to 10^4 cells of a defined cell line (HCT116, Colo 205, MDA-MB 231, etc.) are sown into each well of a 96-well microtitre plate and cultivated overnight under standard conditions. For the substances of the combination to be tested, 10-50 mM stock solutions in DMSO were prepared. Dilution series (generally 3-fold dilution steps) of the individual substances were combined with one another in the form of a pipetting scheme (see scheme below), while maintaining a DMSO final concentration of 0.5% (v/v). Next morning, the substance mixtures were added to the cells, which were incubated under culture conditions for a further 48 hours. At the end of the cultivation, Crystal Violet staining of the cells was carried out. After extraction of the Crystal Violet from the fixed cells, the absorption at 550 nm was measured spectrophotometrically. It can be used as a quantitative measure of the adherent cells present.
HCT116 cells were incubated overnight at 37° C. in 96-well plates at a density of 2500 or 5000 cells/well. On the following day, a concentration matrix of pentamidine and the compounds indicated was added, and the cells were incubated for a further 48 hrs. The cells were then stained with Crystal Violet, and the absorption was measured after extraction of the dye. The absorption value reflects the number of cells in the well.
Results: Upper matrix: OD550 nm background corrected Central matrix: % of control (the 100% value stands for vehicle-treated cells minus background signal) Lower field: -fold inhibition values (i.e. the 100%/x % value stands for a-fold inhibition of proliferation).

[3] = monastrol 6.125 μM, pentamidine 0 μM
[4] = monastrol 12.5 μM, pentamidine 0 μM
[5] = monastrol 25 μM, pentamidine 0 μM
[6] = monastrol 50 μM, pentamidine 0 μM

Compound: CC(C)(C)c1ccc2c(c1)[C@H]1OCCC[C@H]1[C@H](c1ccsc1)N2 [Example I12]
- percentage of cells in the G0/G1 phase (G1) ([1]; 0.0032 μM): 36%
- percentage of cells in the G2/M phase ([1]; 0.0032 μM): 21%
- percentage of cells in the S phase ([1]; 0.0032 μM): 44%
- percentage of cells in the G0/G1 phase (G1) ([1]; 0.016 μM): 36%
- percentage of cells in the G2/M phase ([1]; 0.016 μM): 21%
- percentage of cells in the S phase ([1]; 0.016 μM): 43%
- percentage of cells in the G0/G1 phase (G1) ([1]; 0.08 μM): 35%
- percentage of cells in the G2/M phase ([1]; 0.08 μM): 23%
- percentage of cells in the S phase ([1]; 0.08 μM): 42%
- percentage of cells in the G0/G1 phase (G1) ([1]; 0.4 μM): 7%
- percentage of cells in the G2/M phase ([1]; 0.4 μM): 86%
- percentage of cells in the S phase ([1]; 0.4 μM): 7%
- percentage of cells in the G0/G1 phase (G1) ([1]; 2 μM): 0%
- percentage of cells in the G2/M phase ([1]; 2 μM): 85%
- percentage of cells in the S phase ([1]; 2 μM): 15%
- activity at 0.025 µM ([2]; Homo sapiens, HCT-116, 48 h, I12 0.025 μM, pentamidine 0 μM, read-out: % of control): 91%
- activity at 0.05 µM ([2]; Homo sapiens, HCT-116, 48 h, I12 0.05 μM, pentamidine 0 μM, read-out: % of control): 98%
- activity at 0.1 µM ([2]; Homo sapiens, HCT-116, 48 h, I12 0.1 μM, pentamidine 0 μM, read-out: % of control): 90%
- activity at 0.2 µM ([2]; Homo sapiens, HCT-116, 48 h, I12 0.2 μM, pentamidine 0 μM, read-out: % of control): 90%
- activity at 0.4 µM ([2]; Homo sapiens, HCT-116, 48 h, I12 0.4 μM, pentamidine 0 μM, read-out: % of control): 31%
- -fold inhibition of proliferation ([2]; I12 0.025 μM, pentamidine 0 μM): 1 fold
- OD550 nm background corrected ([2]; I12 0.025 μM, pentamidine 0 μM): 1.1
- -fold inhibition of proliferation ([2]; I12 0.05 μM, pentamidine 0 μM): 1 fold
- OD550 nm background corrected ([2]; I12 0.05 μM, pentamidine 0 μM): 1.2
- -fold inhibition of proliferation ([2]; I12 0.1 μM, pentamidine 0 μM): 1 fold
- OD550 nm background corrected ([2]; I12 0.1 μM, pentamidine 0 μM): 1.1
- -fold inhibition of proliferation ([2]; I12 0.2 μM, pentamidine 0 μM): 1 fold
- OD550 nm background corrected ([2]; I12 0.2 μM, pentamidine 0 μM): 1.1
- -fold inhibition of proliferation ([2]; I12 0.4 μM, pentamidine 0 μM): 3 fold
- OD550 nm background corrected ([2]; I12 0.4 μM, pentamidine 0 μM): 0.4

Compound: CCOC(=O)C1=C(C)NC(=S)NC1c1cccc(O)c1 (stereo not drawn) [Monastrol]
- percentage of cells in the G0/G1 phase (G1) ([1]; 0.08 μM): 35%
- percentage of cells in the G2/M phase ([1]; 0.08 μM): 25%
- percentage of cells in the S phase ([1]; 0.08 μM): 39%
- percentage of cells in the G0/G1 phase (G1) ([1]; 0.4 μM): 34%
- percentage of cells in the G2/M phase ([1]; 0.4 μM): 28%
- percentage of cells in the S phase ([1]; 0.4 μM): 38%
- percentage of cells in the G0/G1 phase (G1) ([1]; 2 μM): 33%
- percentage of cells in the G2/M phase ([1]; 2 μM): 25%
- percentage of cells in the S phase ([1]; 2 μM): 42%
- percentage of cells in the G0/G1 phase (G1) ([1]; 10 μM): 34%
- percentage of cells in the G2/M phase ([1]; 10 μM): 27%
- percentage of cells in the S phase ([1]; 10 μM): 39%
- percentage of cells in the G0/G1 phase (G1) ([1]; 50 μM): 14%
- percentage of cells in the G2/M phase ([1]; 50 μM): 52%
- percentage of cells in the S phase ([1]; 50 μM): 33%
- activity at 6.125 µM ([2]; Homo sapiens, HCT-116, 48 h, monastrol 6.125 μM, pentamidine 0 μM, read-out: % of control): 84%
- activity at 12.5 µM ([2]; Homo sapiens, HCT-116, 48 h, monastrol 12.5 μM, pentamidine 0 μM, read-out: % of control): 62%
- activity at 25 µM ([2]; Homo sapiens, HCT-116, 48 h, monastrol 25 μM, pentamidine 0 μM, read-out: % of control): 53%
- activity at 50 µM ([2]; Homo sapiens, HCT-116, 48 h, monastrol 50 μM, pentamidine 0 μM, read-out: % of control): 17%
- -fold inhibition of proliferation [2, 3]: 1 fold
- OD550 nm background corrected [2, 3]: 0.68
- -fold inhibition of proliferation [2, 4]: 2 fold
- OD550 nm background corrected [2, 4]: 0.51
- -fold inhibition of proliferation [2, 5]: 2 fold
- OD550 nm background corrected [2, 5]: 0.43
- -fold inhibition of proliferation [2, 6]: 6 fold
- OD550 nm background corrected [2, 6]: 0.14

Compound: N=C(N)c1ccc(OCCCCCOc2ccc(C(=N)N)cc2)cc1.O=S(=O)(O)CCO.O=S(=O)(O)CCO [Pentamidine Isothionate]
- percentage of cells in the G0/G1 phase (G1) ([1]; 0.016 μM): 36%
- percentage of cells in the G2/M phase ([1]; 0.016 μM): 22%
- percentage of cells in the S phase ([1]; 0.016 μM): 42%
- percentage of cells in the G0/G1 phase (G1) ([1]; 0.08 μM): 35%
- percentage of cells in the G2/M phase ([1]; 0.08 μM): 21%
- percentage of cells in the S phase ([1]; 0.08 μM): 44%
- percentage of cells in the G0/G1 phase (G1) ([1]; 0.4 μM): 33%
- percentage of cells in the G2/M phase ([1]; 0.4 μM): 22%
- percentage of cells in the S phase ([1]; 0.4 μM): 45%
- percentage of cells in the G0/G1 phase (G1) ([1]; 2 μM): 32%
- percentage of cells in the G2/M phase ([1]; 2 μM): 24%
- percentage of cells in the S phase ([1]; 2 μM): 44%
- percentage of cells in the G0/G1 phase (G1) ([1]; 10 μM): 32%
- percentage of cells in the G2/M phase ([1]; 10 μM): 32%
- percentage of cells in the S phase ([1]; 10 μM): 32%

Compound: N=C(N)c1ccc(OCCCCCOc2ccc(C(=N)N)cc2)cc1 [Pentamidine, pentamidine]
- effect on the cell cycle (in words) [1]: maintain cells in the G2/M cell cycle
- activity at 4 µM ([2]; Homo sapiens, HCT-116, 48 h, pentamidine 4 μM alone, read-out: % of control): 85%
- activity at 8 µM ([2]; Homo sapiens, HCT-116, 48 h, pentamidine 8 μM alone, read-out: % of control): 50%
- activity at 16 µM ([2]; Homo sapiens, HCT-116, 48 h, pentamidine 16 μM alone, read-out: % of control): 30%
- activity at 32 µM ([2]; Homo sapiens, HCT-116, 48 h, pentamidine 32 μM alone, read-out: % of control): 20%
- % of control ([2]; pentamidine 2 μM alone): 86% and 124%
- -fold inhibition of proliferation ([2]; pentamidine 2 μM alone): 1 fold
- OD550 nm background corrected ([2]; pentamidine 2 μM alone): 1.0 and 1.01
- % of control ([2]; pentamidine 4 μM alone): 101%
- -fold inhibition of proliferation ([2]; pentamidine 4 μM alone): 1 fold
- OD550 nm background corrected ([2]; pentamidine 4 μM alone): 1.0 and 0.82
- % of control ([2]; pentamidine 8 μM alone): 55%
- -fold inhibition of proliferation ([2]; pentamidine 8 μM alone): 2 fold
- OD550 nm background corrected ([2]; pentamidine 8 μM alone): 0.6 and 0.45
- % of control ([2]; pentamidine 16 μM alone): 18%
- -fold inhibition of proliferation ([2]; pentamidine 16 μM alone): 3 fold and 6 fold
- -fold inhibition of proliferation ([2]; pentamidine 32 μM alone): 5 fold
- OD550 nm background corrected ([2]; pentamidine 32 μM alone): 0.2
